Reference: PubChem BioAssay AID248 (DTP/NCI, 2004)
“And” between values parts separate entries of the source, which are not always exact repeats. Equal entries are not always repeated. Inconclusive results and toxic doses are left out.

System: L1210 leukemia ip in BDF1 mice, survival T/C
Assay: NCI In Vivo Anticancer Drug Screen. Data for tumor model L1210 Leukemia (intraperitoneal) in B6D2F1 (BDF1) mice
Conditions: endpoint: mean survival time, higher = longer survival
Outline: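 Read-out is survival time, reported as the treated-group measurement over the vehicle-control measurement.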

[1] = dose: 100.0 mg/kg/injection, schedule: Q01DX001 (ip), vehicle: saline
[2] = dose: 100.0 mg/kg/injection, schedule: Q01DX001 (ip), vehicle: Klucel (hydroxypropylcellulose) (HPC)
[3] = dose: 400.0 mg/kg/injection, schedule: Q01DX001 (ip), vehicle: Klucel (hydroxypropylcellulose) (HPC)

## C=CCOC(=O)c1ccco1
dose: 25.0 mg/kg/injection, schedule: Q01DX009 (ip), vehicle: Klucel (hydroxypropylcellulose) (HPC)
  T/C: 98 % of control
dose: 50.0 mg/kg/injection, schedule: Q01DX009 (ip), vehicle: Klucel (hydroxypropylcellulose) (HPC)
  T/C: 106 % of control
dose: 100.0 mg/kg/injection, schedule: Q01DX009 (ip), vehicle: Klucel (hydroxypropylcellulose) (HPC)
  T/C: 94 % of control and 96 % of control

## Cc1cc(CC(O)(C(F)(F)Cl)C(F)(F)Cl)cc(C)n1
dose: 100.0 mg/kg/injection, schedule: Q01DX009 (ip), vehicle: saline with Tween-80
  T/C: 97 % of control
dose: 200.0 mg/kg/injection, schedule: Q01DX009 (ip), vehicle: saline with Tween-80
  T/C: 94 % of control
dose: 400.0 mg/kg/injection, schedule: Q01DX009 (ip), vehicle: saline with Tween-80
  T/C: 95 % of control

## C=CCN(CC=C)P(=O)(N(CC=C)CC=C)N1CC1
dose: 3.0 mg/kg/injection, schedule: Q01DX015 (ip), vehicle: saline
  T/C: 151 % of control
dose: 5.0 mg/kg/injection, schedule: Q01DX001 (ip), vehicle: saline
  T/C: 117 % of control
dose: 5.0 mg/kg/injection, schedule: Q01DX015 (ip), vehicle: saline
  T/C: 155 % of control
dose: 7.0 mg/kg/injection, schedule: Q01DX015 (ip), vehicle: saline
  T/C: 173 % of control
dose: 10.0 mg/kg/injection, schedule: Q01DX001 (ip), vehicle: saline
  T/C: 117 % of control
dose: 11.0 mg/kg/injection, schedule: Q01DX015 (ip), vehicle: saline
  T/C: 178 % of control
[1]
  T/C: 175 % of control

## O=[N+]([O-])c1ccc(N2CCCC2)cc1
[2]
  T/C: 97 % of control
dose: 200.0 mg/kg/injection, schedule: Q01DX001 (ip), vehicle: Klucel (hydroxypropylcellulose) (HPC)
  T/C: 105 % of control
[3]
  T/C: 108 % of control

## O=C(NCCCN1CC1)C(=O)Nc1ccccc1
dose: 12.5 mg/kg/injection, schedule: Q04DX003 (ip), vehicle: Klucel (hydroxypropylcellulose) (HPC)
  T/C: 92 % of control
dose: 25.0 mg/kg/injection, schedule: Q04DX003 (ip), vehicle: Klucel (hydroxypropylcellulose) (HPC)
  T/C: 101 % of control

## C=CC[n+]1c(C)ccc2ccccc21
dose: 25.0 mg/kg/injection, schedule: Q01DX009 (ip), vehicle: saline with Tween-80
  T/C: 100 % of control
dose: 50.0 mg/kg/injection, schedule: Q01DX009 (ip), vehicle: saline with Tween-80
  T/C: 115 % of control
dose: 100.0 mg/kg/injection, schedule: Q01DX001 (ip), vehicle: saline with Tween-80
  T/C: 114 % of control

## CCCCC=C(C1CCCCC1)C1CCCCC1
dose: 75.0 mg/kg/injection, schedule: Q01DX001 (ip), vehicle: saline
  T/C: 104 % of control
dose: 75.0 mg/kg/injection, schedule: Q04DX003 (ip), vehicle: saline
  T/C: 92 % of control
dose: 150.0 mg/kg/injection, schedule: Q01DX001 (ip), vehicle: saline
  T/C: 93 % of control
dose: 150.0 mg/kg/injection, schedule: Q04DX003 (ip), vehicle: saline
  T/C: 101 % of control
dose: 300.0 mg/kg/injection, schedule: Q01DX001 (ip), vehicle: saline
  T/C: 91 % of control
dose: 300.0 mg/kg/injection, schedule: Q04DX003 (ip), vehicle: saline
  T/C: 100 % of control

## O=C(NC(=S)Nc1ccccc1)c1cccc(Br)c1
dose: 75.0 mg/kg/injection, schedule: Q01DX001 (ip), vehicle: carboxymethylcellulose (CMC)
  T/C: 90 % of control
dose: 150.0 mg/kg/injection, schedule: Q01DX001 (ip), vehicle: carboxymethylcellulose (CMC)
  T/C: 88 % of control
dose: 300.0 mg/kg/injection, schedule: Q01DX001 (ip), vehicle: carboxymethylcellulose (CMC)
  T/C: 96 % of control

## ClCCN(CCCl)c1ccc(C=Nc2ccc(-c3csc(-c4ccccc4)n3)c(Cl)c2)cc1
dose: 100.0 mg/kg/injection, schedule: Q01DX001 (sc), vehicle: carboxymethylcellulose (CMC)
  T/C: 94 % of control
dose: 200.0 mg/kg/injection, schedule: Q01DX001 (sc), vehicle: carboxymethylcellulose (CMC)
  T/C: 97 % of control
dose: 400.0 mg/kg/injection, schedule: Q01DX001 (sc), vehicle: carboxymethylcellulose (CMC)
  T/C: 103 % of control

## CC#N.[CH-]=C(C)C.[Cl][Pt][Cl]
dose: 6.25 mg/kg/injection, schedule: Q04DX003 (ip), vehicle: water
  T/C: 95 % of control
dose: 12.5 mg/kg/injection, schedule: Q04DX003 (ip), vehicle: water
  T/C: 97 % of control
dose: 25.0 mg/kg/injection, schedule: Q04DX003 (ip), vehicle: water
  T/C: 100 % of control
dose: 50.0 mg/kg/injection, schedule: Q04DX003 (ip), vehicle: water
  T/C: 101 % of control

## CC(C)c1ccc(/C=N/NC(=O)c2ccncc2)cc1
dose: 100.0 mg/kg/injection, schedule: Q01DX009 (ip), vehicle: saline
  T/C: 100 % of control

## COC(OC)c1[nH]c(=S)[nH]c(=O)c1Cc1c(Cl)cccc1Cl
dose: 100.0 mg/kg/injection, schedule: Q04DX003 (ip), vehicle: saline with Tween-80
  T/C: 101 % of control
dose: 200.0 mg/kg/injection, schedule: Q04DX003 (ip), vehicle: saline with Tween-80
  T/C: 103 % of control
dose: 400.0 mg/kg/injection, schedule: Q04DX003 (ip), vehicle: saline with Tween-80
  T/C: 94 % of control

## O=C(Oc1ccccc1[N+](=O)[O-])Oc1ccccc1[N+](=O)[O-]
dose: 100.0 mg/kg/injection, schedule: Q01DX001 (ip), vehicle: carboxymethylcellulose (CMC)
  T/C: 96 % of control
dose: 200.0 mg/kg/injection, schedule: Q01DX001 (ip), vehicle: carboxymethylcellulose (CMC)
  T/C: 93 % of control
dose: 400.0 mg/kg/injection, schedule: Q01DX001 (ip), vehicle: carboxymethylcellulose (CMC)
  T/C: 104 % of control

## O=C(CI)OCC#CCOC(=O)CI
dose: 12.5 mg/kg/injection, schedule: Q01DX001 (ip), vehicle: carboxymethylcellulose (CMC)
  T/C: 98 % of control
dose: 12.5 mg/kg/injection, schedule: Q01DX009 (ip), vehicle: carboxymethylcellulose (CMC)
  T/C: 90 % of control and 92 % of control
dose: 12.5 mg/kg/injection, schedule: Q04DX002 (ip), vehicle: carboxymethylcellulose (CMC)
  T/C: 104 % of control and 110 % of control
dose: 12.5 mg/kg/injection, schedule: Q04DX003 (ip), vehicle: carboxymethylcellulose (CMC)
  T/C: 95 % of control
dose: 25.0 mg/kg/injection, schedule: Q01DX001 (ip), vehicle: carboxymethylcellulose (CMC)
  T/C: 103 % of control
dose: 25.0 mg/kg/injection, schedule: Q01DX009 (ip), vehicle: carboxymethylcellulose (CMC)
  T/C: 86 % of control
dose: 25.0 mg/kg/injection, schedule: Q04DX002 (ip), vehicle: carboxymethylcellulose (CMC)
  T/C: 98 % of control
dose: 25.0 mg/kg/injection, schedule: Q04DX003 (ip), vehicle: carboxymethylcellulose (CMC)
  T/C: 103 % of control
dose: 50.0 mg/kg/injection, schedule: Q01DX001 (ip), vehicle: carboxymethylcellulose (CMC)
  T/C: 92 % of control
dose: 50.0 mg/kg/injection, schedule: Q04DX002 (ip), vehicle: carboxymethylcellulose (CMC)
  T/C: 97 % of control and 103 % of control
dose: 50.0 mg/kg/injection, schedule: Q04DX003 (ip), vehicle: carboxymethylcellulose (CMC)
  T/C: 94 % of control

## [N-]=[N+]=C1N=C(Cl)N=C1c1ncn[nH]1
dose: 25.0 mg/kg/injection, schedule: Q01DX001 (ip), vehicle: Klucel (hydroxypropylcellulose) (HPC)
  T/C: 97 % of control
dose: 50.0 mg/kg/injection, schedule: Q01DX001 (ip), vehicle: Klucel (hydroxypropylcellulose) (HPC)
  T/C: 108 % of control
[2]
  T/C: 102 % of control and 112 % of control
[3]
  T/C: 112 % of control

## N#Cc1cc[n+](Cc2ccc([N+](=O)[O-])cc2)cc1
[1]
  T/C: 104 % of control
dose: 200.0 mg/kg/injection, schedule: Q01DX001 (ip), vehicle: saline
  T/C: 98 % of control

## C=C1C(=O)OC2CC(C)C3C4OC4C(O)C3(C)C(O)C12 (centres undefined)
dose: 9.38 mg/kg/injection, schedule: Q01DX009 (ip), vehicle: saline with Tween-80
  T/C: 104 % of control
dose: 18.75 mg/kg/injection, schedule: Q01DX009 (ip), vehicle: saline with Tween-80
  T/C: 106 % of control
dose: 37.5 mg/kg/injection, schedule: Q01DX009 (ip), vehicle: saline with Tween-80
  T/C: 102 % of control
